From US9187490B2, “Dimeric IAP inhibitors” (TetraLogic Pharmaceuticals Corporation, priority 2005, dated 2015)
Read-outs that look alike come from different tables or passages of the source.

Biological target: T1, XIAP-BIR3 (Homo sapiens, UniProt P98170)
T1 construct: 40 nM of XIAP-BIR3 for 15 min at RT
Test: XIAP BIR-3 fluorescence polarization binding assay
Details: read-out: KD Range
Procedure: Following incubation, the polarization values (mP) were measured on a Victor^2V using a 485 nm excitation filter and a 520 nm emission filter. IC50 values were determined from the plot using nonlinear least-squares analysis using GraphPad Prism.

[1] = 5 nM AbuRPF-K(5-Fam)-NH2, 40 nM XIAP-BIR3, 15 min RT, pH 7.5

T1 sequence (P98170 241-356 limits assumed): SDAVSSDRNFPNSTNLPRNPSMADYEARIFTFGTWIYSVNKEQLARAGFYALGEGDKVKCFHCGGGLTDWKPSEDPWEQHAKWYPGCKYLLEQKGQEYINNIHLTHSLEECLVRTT

Structure (SMILES) | Kd (Example 4 series) [nM] | other results
CC[C@H](NC(=O)[C@H](C)NC)C(=O)N1CCC[C@H]1Cc1c(-c2[nH]c3cc(F)ccc3c2C[C@@H]2CCCN2C(=O)[C@H](CC)NC(=O)[C@H](C)NC)[nH]c2cc(F)ccc12 [Entry 79] | < 100 | –
CNC(C)C(=O)NC(C(=O)N1CCCC1Cc1c(-c2[nH]c3ccc(F)cc3c2CC2CCCN2C(=O)C(NC(=O)C(C)NC)C(C)O)[nH]c2ccc(F)cc12)C(C)O (centres unmarked) [Entry 80] | < 100 | –
CCC(C)[C@H](NC(=O)[C@H](C)NC)C(=O)N1CCC[C@H]1Cc1c(-c2[nH]c3ccc(F)cc3c2C[C@@H]2CCCN2C(=O)[C@@H](NC(=O)[C@H](C)NC)C(C)CC)[nH]c2ccc(F)cc12 (some centres unmarked) [Entry 82] | < 100 | –
CN[C@@H](C)C(=O)N[C@H](C(=O)N1CCC[C@H]1Cc1c(-c2[nH]c3ccc(F)cc3c2C[C@@H]2CCCN2C(=O)[C@@H](NC(=O)[C@H](C)NC)C2CCCCC2)[nH]c2ccc(F)cc12)C1CCCCC1 [Entry 83] | < 100 | –
CN[C@@H](C)C(=O)N[C@H](C(=O)N1C[C@@H](O)C[C@H]1Cc1c(-c2[nH]c3cc(F)ccc3c2C[C@@H]2C[C@H](O)CN2C(=O)[C@@H](NC(=O)[C@H](C)NC)C(C)C)[nH]c2cc(F)ccc12)C(C)C [Entry 87] | < 100 | –
CNC(C)C(=O)NC(C(=O)N1CC(O)CC1Cc1c(-c2[nH]c3cc(F)ccc3c2CC2CC(O)CN2C(=O)C(NC(=O)C(C)NC)C(C)OC(C)(C)C)[nH]c2cc(F)ccc12)C(C)OC(C)(C)C (centres unmarked) [Entry 89] | 100 to 1000 | –
CN[C@H](C)C(=O)N[C@H](C(=O)N1CCC[C@H]1Cc1c(-c2[nH]c3cc(F)ccc3c2C[C@@H]2CCCN2C(=O)[C@@H](NC(=O)[C@@H](C)NC)C(C)C)[nH]c2cc(F)ccc12)C(C)C [Entry 91] | 100 to 1000 | –
CNC(C)C(=O)NC1CC=CCC(NC(=O)C(C)NC)C(=O)N2CCCC2Cc2c3n(c4cc(F)ccc24)CCn2c-3c(c3ccc(F)cc32)CC2CCCN2C1=O (centres unmarked) [Entry 95] | – | Kd [1]: < 100 nM
CN[C@@H](C)C(=O)NC1CCCC[C@H](NC(=O)[C@H](C)NC)C(=O)N2CCC[C@H]2Cc2c3n(c4ccc(F)cc24)CCn2c-3c(c3cc(F)ccc32)C[C@@H]2CCCN2C1=O (some centres unmarked) [Entry 97] | – | Kd [1]: < 100 nM
CN[C@@H](C)C(=O)N[C@H](C(=O)N1CCC[C@H]1Cc1c(-c2[nH]c3ccccc3c2C[C@@H]2CCCN2C(=O)[C@@H](NC(=O)[C@H](C)NC)[C@@H](C)O)[nH]c2ccccc12)[C@@H](C)O [Entry 105] | – | Kd (Example 7 series): < 100 nM

More lines, main results first:

Kd (Example 4 series) [nM] | Structure (SMILES) | other results
< 100 | CNC(C)C(=O)NC(C(=O)N1CCCC1Cc1c(-c2[nH]c3cc(F)ccc3c2CC2CCCN2C(=O)C(NC(=O)C(C)NC)C(C)O)[nH]c2cc(F)ccc12)C(C)O (centres unmarked) [Entry 78] | –
100 to 1000 | CC(C)[C@H](NC(=O)CN)C(=O)N1CCC[C@H]1Cc1c(-c2[nH]c3cc(F)ccc3c2C[C@@H]2CCCN2C(=O)[C@@H](NC(=O)CN)C(C)C)[nH]c2cc(F)ccc12 [Entry 81] | –
< 100 | CN[C@@H](C)C(=O)N[C@H](C(=O)N1CCC[C@H]1Cc1c(-c2[nH]c3cc(F)ccc3c2C[C@@H]2CCCN2C(=O)[C@@H](NC(=O)[C@H](C)NC)C(C)(C)C)[nH]c2cc(F)ccc12)C(C)(C)C [Entry 84] | –
< 100 | CN[C@@H](C)C(=O)N[C@H](C(=O)N1CCC[C@H]1Cc1c(-c2[nH]c3cc(F)ccc3c2C[C@@H]2CCCN2C(=O)[C@@H](NC(=O)[C@H](C)NC)C2CCCCC2)[nH]c2cc(F)ccc12)C1CCCCC1 [Entry 85] | –
< 100 | CNC(C)C(=O)NC(C(=O)N1CC(O)CC1Cc1c(-c2[nH]c3cc(F)ccc3c2CC2CC(O)CN2C(=O)C(NC(=O)C(C)NC)C(C)O)[nH]c2cc(F)ccc12)C(C)O (centres unmarked) [Entry 86] | –
< 100 | CNC(C)C(=O)NC(C(=O)N1CC(O)CC1Cc1c(-c2[nH]c3cc(F)ccc3c2CC2CC(O)CN2C(=O)C(NC(=O)C(C)NC)C(C)OC)[nH]c2cc(F)ccc12)C(C)OC (centres unmarked) [Entry 88] | –
< 100 | CNC(C)C(=O)NC(C(=O)N1CC(O)CC1Cc1c(-c2[nH]c3cc(F)ccc3c2CC2CC(O)CN2C(=O)C(NC(=O)C(C)NC)C(C)O)[nH]c2cc(F)ccc12)C(C)O (centres unmarked) [Entry 90] | –
